From article PMC12621189, “Optimization of Selective and CNS Penetrant Alkyne-Based TREK Inhibitors: The Discovery and Characterization of ONO-9517601 (VU6022856) and ONO-7927846 (VU6024391)” (Journal of Medicinal Chemistry, 2025)
Where two headings read alike, the source gives them in different places.

Tests used:
[1] = molecular target: T1, rat TREK-1 (Rattus norvegicus, UniProt Q920B6); experiment: rat TREK-1 manual patch clamp; format: cell-based; conditions: read-out: TREK-1 IC50 (rat, MPC)
T1 sequence (Q920B6 1-426): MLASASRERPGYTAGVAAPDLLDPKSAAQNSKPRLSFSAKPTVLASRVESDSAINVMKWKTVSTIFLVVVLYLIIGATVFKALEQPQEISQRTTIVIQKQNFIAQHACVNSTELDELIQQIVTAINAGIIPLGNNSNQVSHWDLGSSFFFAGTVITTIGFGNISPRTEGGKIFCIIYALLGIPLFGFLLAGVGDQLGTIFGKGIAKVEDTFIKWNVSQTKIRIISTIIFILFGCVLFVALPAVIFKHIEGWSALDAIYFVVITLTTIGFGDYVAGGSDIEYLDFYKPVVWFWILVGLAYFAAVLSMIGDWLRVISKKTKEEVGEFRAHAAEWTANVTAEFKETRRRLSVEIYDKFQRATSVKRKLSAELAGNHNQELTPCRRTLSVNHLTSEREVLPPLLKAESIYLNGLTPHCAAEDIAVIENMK

[2] = Plasma protein binding, mouse; format: in vitro ADME; conditions: bound; for fraction unbound at 6 h, 5 µM: mouse, plasma, pH 7.4, mouse plasma, read-out: PPB mouse (converted)
Experimental: Plasma protein binding and Brain homogenate binding: Determination of fraction unbound (f u) in plasma was conducted in vitro via equilibrium dialysis using HTDialysis (HTD) membrane plates. The top half of the plate was filled with 100 uL of Dubelco’s Phosphate Buffered Saline, pH 7.4 (DPBS). Compounds were diluted into plasma from each species (5 µM final concentration), which was aliquoted in triplicate to the ‘bottom half’ of the prepared HTD plate wells. The HTD plate was sealed and incubated for 6 hours at 37 °C. Following incubation, each well (both top and bottom halves) were transferred (20 µL) to the corresponding wells of a 96-shallow-well (V-bottom) plate. The daughter plates were then matrix-matched (DPBS side wells received equal volume of plasma, and plasma side wells received equal volume of DPBS), and extraction solution (120 µL; acetonitrile containing 50 nM carbamazepine as IS) was added to all wells of both daughter plates to precipitate protein and extract test article. The plates were then sealed and centrifuged (3500 rcf) for 10 minutes at ambient temperature. Supernatant (60 µL) from each well of the daughter plates was then transferred to the corresponding wells of new daughter plates (96-shallow-well, V bottom) containing water (Milli-Q, 60 µL/well), and the plates were sealed in preparation for LC-MS/MS analysis (see LC-MS/MS analysis method below).
The unbound fraction (f u) was calculated following the equation below, and mean values for each species were calculated from 3 replicates. […]
Fraction unbound for both plasma and brain samples was determined using Equation 4.
Equation 4 Determination of fraction unbound in plasma. […]

[3] = molecular target: T2, human TREK-2 (Homo sapiens, UniProt P57789); experiment: hTREK-2 manual patch clamp assay; format: cell-based; conditions: human TREK-2, manual patch clamp; read-out: TREK-2 IC50 (human, MPC)
T2 construct: expressed in transfected cells
Experimental: compounds were dissolved into the bathing solution. The effects of test compound on the currents were calculated at 0 mV using the following equations:
% inhibition = (1-post current/pre current) x 100
% inhibition vs compound concentrations were plotted in GraphPad Prism and calculated IC50. […]
hTREK-2 patch clamp assay
HEK293 cells stably expressing human TREK-2 are plated on glass coverslips, and voltage clamped in the whole-cell configuration of the patch clamp technique. Cells are voltage clamped at a holding potential of -80 mV and the stepped to 0 mV for 500 msec. The voltage is subsequently ramped from -120mV to +80 mV over a 500 msec duration. This step-ramp protocol is repeated every 10 sec. The bathing solution contained the following: 135 mM NaCl, 5 mM KCl, 2 mM CaCl2, 1 mM MgCl2, 5 mM D-Glucose, 10 mM HEPES, 10 mM sucrose (adjusted to pH 7.4 with NaOH, 300 mosmol/kg H2O). The pipette solution contained the following: 135 mM KCl, 2 mM MgCl2, 1 mM EGTA, 10 mM HEPES, 2 mM Na2ATP (adjusted to pH 7.35 with KOH, 285 mosmol/kg H2O). Test compounds are dissolved into the bathing solution. Experiments are terminated with the addition of the control compound (tert-butyl (3-((4-(benzyloxy)-2-methylphenyl)carbamoyl)-4-chlorophenyl)carbamate) so that maximal inhibition can be determined. The effects of test compound on the currents can be calculated at 0 mV using the […]

[4] = Rat 4-day dosing general toxicity study; conditions: at NOAEL doses, rat 4-day study
[5] = test system: 68 GPCRs, ion channels, and transporters; experiment: Eurofins Lead Profiling Panel, radioligand binding displacement; conditions: 68 targets, 10 μM
[6] = molecular target: Cav1.2 (Homo sapiens, UniProt Q13936); experiment: MPC ion channel panel, Cav1.2; format: cell-based
Sequence of Cav1.2 (Q13936 whole entry): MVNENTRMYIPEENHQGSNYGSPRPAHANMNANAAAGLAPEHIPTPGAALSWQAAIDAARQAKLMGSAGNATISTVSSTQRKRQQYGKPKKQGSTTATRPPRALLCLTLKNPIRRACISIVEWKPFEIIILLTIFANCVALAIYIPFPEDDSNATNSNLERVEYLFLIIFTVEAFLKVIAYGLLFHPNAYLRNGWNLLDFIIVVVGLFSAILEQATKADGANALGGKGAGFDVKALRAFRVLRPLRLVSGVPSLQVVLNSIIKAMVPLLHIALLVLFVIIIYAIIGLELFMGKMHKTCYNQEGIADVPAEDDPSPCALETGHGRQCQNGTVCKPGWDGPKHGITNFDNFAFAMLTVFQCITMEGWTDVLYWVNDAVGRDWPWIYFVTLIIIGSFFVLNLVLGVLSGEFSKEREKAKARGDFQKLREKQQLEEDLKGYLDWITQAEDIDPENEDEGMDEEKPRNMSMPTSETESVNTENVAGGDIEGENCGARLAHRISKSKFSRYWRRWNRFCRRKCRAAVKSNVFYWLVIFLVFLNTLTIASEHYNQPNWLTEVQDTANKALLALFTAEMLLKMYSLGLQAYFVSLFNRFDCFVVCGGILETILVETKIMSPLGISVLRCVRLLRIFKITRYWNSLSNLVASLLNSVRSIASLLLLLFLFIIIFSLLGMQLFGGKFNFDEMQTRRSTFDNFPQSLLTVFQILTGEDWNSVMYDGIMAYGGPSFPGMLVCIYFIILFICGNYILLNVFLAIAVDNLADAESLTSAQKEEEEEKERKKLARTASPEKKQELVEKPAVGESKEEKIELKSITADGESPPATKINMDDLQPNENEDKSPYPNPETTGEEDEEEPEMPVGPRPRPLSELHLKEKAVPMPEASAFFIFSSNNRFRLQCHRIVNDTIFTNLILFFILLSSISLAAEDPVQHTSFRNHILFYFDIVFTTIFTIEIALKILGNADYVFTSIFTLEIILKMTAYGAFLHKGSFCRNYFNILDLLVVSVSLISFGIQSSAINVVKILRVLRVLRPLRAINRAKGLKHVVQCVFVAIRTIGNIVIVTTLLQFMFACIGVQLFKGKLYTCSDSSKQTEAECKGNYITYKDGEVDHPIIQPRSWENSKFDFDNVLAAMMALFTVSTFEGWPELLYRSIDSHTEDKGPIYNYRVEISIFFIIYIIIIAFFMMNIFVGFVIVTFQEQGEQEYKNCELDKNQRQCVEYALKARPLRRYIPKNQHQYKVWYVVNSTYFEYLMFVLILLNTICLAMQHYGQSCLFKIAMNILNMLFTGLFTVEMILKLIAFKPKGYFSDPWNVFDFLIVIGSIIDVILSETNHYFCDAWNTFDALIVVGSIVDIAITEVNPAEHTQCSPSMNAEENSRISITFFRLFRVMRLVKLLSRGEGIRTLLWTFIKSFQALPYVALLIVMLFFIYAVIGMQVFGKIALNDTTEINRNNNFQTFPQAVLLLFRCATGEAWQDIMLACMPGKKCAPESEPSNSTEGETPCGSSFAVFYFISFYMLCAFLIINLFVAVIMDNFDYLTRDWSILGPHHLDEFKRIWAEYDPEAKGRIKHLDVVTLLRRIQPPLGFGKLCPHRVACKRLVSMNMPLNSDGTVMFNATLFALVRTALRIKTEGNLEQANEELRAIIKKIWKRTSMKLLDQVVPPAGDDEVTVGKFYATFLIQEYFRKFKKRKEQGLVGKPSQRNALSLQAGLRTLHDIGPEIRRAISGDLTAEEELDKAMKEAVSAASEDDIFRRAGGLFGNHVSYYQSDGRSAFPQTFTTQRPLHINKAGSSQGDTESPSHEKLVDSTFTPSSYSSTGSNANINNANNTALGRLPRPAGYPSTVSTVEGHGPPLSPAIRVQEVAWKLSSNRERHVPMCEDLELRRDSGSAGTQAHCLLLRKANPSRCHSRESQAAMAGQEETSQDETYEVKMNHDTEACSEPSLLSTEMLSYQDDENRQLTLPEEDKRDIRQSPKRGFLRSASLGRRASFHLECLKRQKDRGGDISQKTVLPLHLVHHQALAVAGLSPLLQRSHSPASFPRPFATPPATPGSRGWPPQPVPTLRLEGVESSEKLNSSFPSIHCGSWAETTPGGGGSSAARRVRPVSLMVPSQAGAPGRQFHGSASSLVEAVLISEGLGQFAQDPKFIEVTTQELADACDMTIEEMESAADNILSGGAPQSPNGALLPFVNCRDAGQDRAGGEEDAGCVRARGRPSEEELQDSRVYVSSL
Sequence of Cav1.2 (Q08289 whole entry partner): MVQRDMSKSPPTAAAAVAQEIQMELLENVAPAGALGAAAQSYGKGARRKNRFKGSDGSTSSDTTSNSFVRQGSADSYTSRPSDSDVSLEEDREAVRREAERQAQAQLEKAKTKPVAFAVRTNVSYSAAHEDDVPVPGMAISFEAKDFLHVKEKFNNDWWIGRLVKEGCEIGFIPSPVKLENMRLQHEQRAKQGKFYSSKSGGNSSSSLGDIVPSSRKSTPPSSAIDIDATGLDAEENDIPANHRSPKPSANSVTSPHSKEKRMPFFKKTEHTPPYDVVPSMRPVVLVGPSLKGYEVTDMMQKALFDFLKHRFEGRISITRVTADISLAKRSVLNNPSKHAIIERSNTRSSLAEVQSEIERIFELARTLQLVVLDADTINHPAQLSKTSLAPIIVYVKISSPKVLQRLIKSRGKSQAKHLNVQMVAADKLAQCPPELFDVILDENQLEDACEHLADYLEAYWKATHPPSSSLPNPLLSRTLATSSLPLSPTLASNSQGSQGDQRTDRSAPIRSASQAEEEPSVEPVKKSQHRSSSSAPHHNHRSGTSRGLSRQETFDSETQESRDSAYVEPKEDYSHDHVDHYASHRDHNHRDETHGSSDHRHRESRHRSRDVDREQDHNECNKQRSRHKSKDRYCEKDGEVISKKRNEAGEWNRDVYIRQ
Sequence of Cav1.2 (P54289 25-956 partner limits assumed): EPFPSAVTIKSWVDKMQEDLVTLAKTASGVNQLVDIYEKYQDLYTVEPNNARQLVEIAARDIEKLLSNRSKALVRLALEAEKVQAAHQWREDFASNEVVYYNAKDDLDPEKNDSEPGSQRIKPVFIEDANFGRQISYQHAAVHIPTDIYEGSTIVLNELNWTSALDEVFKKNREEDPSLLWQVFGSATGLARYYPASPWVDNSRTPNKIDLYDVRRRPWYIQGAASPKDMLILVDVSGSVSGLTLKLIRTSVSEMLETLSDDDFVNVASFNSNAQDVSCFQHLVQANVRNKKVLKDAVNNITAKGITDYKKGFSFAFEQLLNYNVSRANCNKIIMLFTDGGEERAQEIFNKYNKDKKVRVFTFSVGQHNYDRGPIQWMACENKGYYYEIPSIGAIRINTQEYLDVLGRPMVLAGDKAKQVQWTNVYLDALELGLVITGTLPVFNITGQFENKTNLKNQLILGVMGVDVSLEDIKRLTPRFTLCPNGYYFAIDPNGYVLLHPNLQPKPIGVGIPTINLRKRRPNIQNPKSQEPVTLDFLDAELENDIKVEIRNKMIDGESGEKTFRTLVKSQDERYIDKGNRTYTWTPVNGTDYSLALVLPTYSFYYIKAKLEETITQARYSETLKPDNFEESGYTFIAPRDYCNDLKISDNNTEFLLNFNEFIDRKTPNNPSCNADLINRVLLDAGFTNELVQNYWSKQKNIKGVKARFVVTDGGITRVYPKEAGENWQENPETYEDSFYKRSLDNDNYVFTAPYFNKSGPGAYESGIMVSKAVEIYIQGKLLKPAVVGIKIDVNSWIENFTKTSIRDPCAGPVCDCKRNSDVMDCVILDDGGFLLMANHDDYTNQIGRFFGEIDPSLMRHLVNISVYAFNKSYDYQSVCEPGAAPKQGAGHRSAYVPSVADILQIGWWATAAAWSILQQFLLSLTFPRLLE
Sequence of Cav1.2 (P54289 957-1103 partner limits assumed): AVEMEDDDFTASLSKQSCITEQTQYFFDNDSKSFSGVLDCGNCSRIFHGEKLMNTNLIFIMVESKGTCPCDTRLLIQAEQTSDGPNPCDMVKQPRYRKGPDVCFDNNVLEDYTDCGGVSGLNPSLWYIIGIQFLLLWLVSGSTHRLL

[7] = Brain exposure at the MED (rat NOR); format: in vivo; conditions: oral, 10 at 1 mg/kg, 11 at 0.3 mg/kg
[8] = molecular target: Kir2.1 (Homo sapiens, UniProt P63252); experiment: MPC ion channel panel, Kir2.1; format: cell-based
Sequence of Kir2.1 (P63252 whole entry): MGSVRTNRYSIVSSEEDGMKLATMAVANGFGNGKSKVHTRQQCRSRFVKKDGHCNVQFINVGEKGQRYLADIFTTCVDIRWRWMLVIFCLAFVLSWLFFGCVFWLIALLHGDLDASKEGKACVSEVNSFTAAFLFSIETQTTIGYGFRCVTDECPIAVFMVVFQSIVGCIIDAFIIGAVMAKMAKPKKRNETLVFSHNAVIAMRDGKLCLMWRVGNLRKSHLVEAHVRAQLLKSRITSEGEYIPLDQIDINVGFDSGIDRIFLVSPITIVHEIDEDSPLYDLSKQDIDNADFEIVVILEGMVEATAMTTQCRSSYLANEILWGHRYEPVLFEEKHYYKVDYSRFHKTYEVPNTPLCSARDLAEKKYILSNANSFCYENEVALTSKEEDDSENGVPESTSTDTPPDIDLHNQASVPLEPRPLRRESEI

[9] = Embryo fetal developmental toxicity in vivo
[10] = molecular target: Kv1.5 (Homo sapiens, UniProt P22460); experiment: MPC ion channel panel, Kv1.5; format: cell-based
[11] = molecular target: Nav1.5 (Homo sapiens, UniProt Q14524); experiment: MPC ion channel panel, Nav1.5; format: cell-based
[12] = molecular target: A3 (Homo sapiens, UniProt P0DMS8); experiment: Functional assay, adenosine A3; format: biochemical
Sequence of A3 (P0DMS8 whole entry): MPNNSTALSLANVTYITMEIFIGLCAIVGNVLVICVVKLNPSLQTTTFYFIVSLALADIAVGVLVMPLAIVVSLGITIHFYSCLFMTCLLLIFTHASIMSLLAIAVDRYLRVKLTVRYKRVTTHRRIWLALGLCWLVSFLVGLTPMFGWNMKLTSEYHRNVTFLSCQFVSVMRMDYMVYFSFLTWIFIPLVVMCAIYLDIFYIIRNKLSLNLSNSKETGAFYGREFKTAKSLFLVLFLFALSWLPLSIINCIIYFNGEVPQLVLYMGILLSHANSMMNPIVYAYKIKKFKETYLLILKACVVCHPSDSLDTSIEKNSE

[13] = in vivo; conditions: rat, po
[14] = molecular target: Kir2.2 (Homo sapiens, UniProt Q14500); experiment: MPC ion channel panel, Kir2.2; format: cell-based
[15] = molecular target: T1, rat TREK-1; experiment: rat TREK-1 thallium flux; format: cell-based; conditions: read-out: TREK-1 IC50 (rat, Tl+)
[16] = molecular target: CYP 2D6 (Homo sapiens, UniProt P10635); experiment: CYP450 inhibition 2D6; format: in vitro ADME

PPB mouse ([2]; mouse plasma) [%] | SMILES | IC50 [1] [nM] | fraction unbound at 6 h, 5 µM [2] | IC50 [3] [nM] | safety margin based on the AUC [4] | targets with >50% inhibition in Lead Profiling Panel [5] | inhibition at 10 µM [6] [%] | Cmax [7] [nM] | inhibition at 10 µM [8] [%] | embryo fetal developmental toxicity [9] | embryo fetal developmental toxicity ([9]; listed as ONO-9517601) | inhibition at 10 µM [10] [%] | inhibition at 10 µM [11] [%] | IC50 [12] [nM] | NOAEL at 4 days [13] [mg/kg] | inhibition at 10 µM [14] [%] | IC50 [15] [nM] | IC50 [16] [nM] | embryo fetal developmental toxicity ([9]; listed as ONO-7927846)
 | CC(=O)N1CCC(n2ncc(Cl)c2C(=O)Nc2ncc(C#Cc3ccccc3)cc2C)CC1 [Compound 10, 1-(1-Acetylpiperidin-4-yl)-4-chloro-N-(3-methyl-5-(phenylethynyl)pyridin-2-yl)-1H-pyrazole-5-carboxamide] | 88 | 0.018 | 81 | more than 10 fold | only two targets displayed >50% inhibition | ≤ 50 | 218 | ≤ 50 | positive | positive signal | ≤ 50 | ≤ 50 | 5370 | 10 | 51 | 280 | 10300 | 
 | CC(=O)N1CC[C@@H](n2ncc(Cl)c2C(=O)Nc2ncc(C#Cc3ccc(F)cc3)cc2C)[C@H](F)C1 [Compound 11, 1-((3R,4R)-1-Acetyl-3-fluoropiperidin-4-yl)-4-chloro-N-(5-((4-fluorophenyl)ethynyl)-3-methylpyridin-2-yl)-1H-pyrazole-5-carboxamide] | 200 |  | 110 | more than 10 fold | only two targets displayed >50% inhibition | ≤ 50 | 58 | ≤ 50 | positive |  | ≤ 50 | ≤ 50 | 19800 | 6 | ≤ 50 | 290 | 7000 | positive signal
98.0 | Cc1cc(C#Cc2ccccc2)cnc1NC(=O)c1c(Cl)cnn1[C@H]1CCOC1 [Compound 15a, (S)-4-Chloro-N-(3-methyl-5-(phenylethynyl)pyridin-2-yl)-1-(tetrahydrofuran-3-yl)-1H-pyrazole-5-carboxamide] |  | ~0.02 |  |  |  |  |  |  |  |  |  |  |  |  |  |  |  | 
